Legend:
Assay in all cases: relative viability (nuclei count vs DMSO), 5 days (fraction); higher = more cells survive
Entinostat + Palbociclib = compound: Nc1ccccc1NC(=O)c1ccc(CNC(=O)OCc2cccnc2)cc1 [Entinostat] + CC(=O)c1c(C)c2cnc(Nc3ccc(N4CCNCC4)cn3)nc2n(C2CCCC2)c1=O [Palbociclib] (partner 0.5 µM)
In short: (§1)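 Lung cancer cell lines in 1536-well plates got either a single drug or a fixed anchor-drug dose together with five library-drug doses (not always all listed) in √10 steps, by pin tool, on the day after seeding. Nuclei were counted after 5 days, and relative viability is the treated-to-vehicle ratio of nuclei counts. Values are medians of duplicate plates.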

Entinostat + AZD7762 = compound: Nc1ccccc1NC(=O)c1ccc(CNC(=O)OCc2cccnc2)cc1 [Entinostat] + NC(=O)Nc1cc(-c2cccc(F)c2)sc1C(=O)N[C@H]1CCCNC1 [AZD7762] (partner 0.2 µM)
In short: as §1

Entinostat + Trametinib = compound: Nc1ccccc1NC(=O)c1ccc(CNC(=O)OCc2cccnc2)cc1 [Entinostat] + CC(=O)Nc1cccc(-n2c(=O)n(C3CC3)c(=O)c3c(Nc4ccc(I)cc4F)n(C)c(=O)c(C)c32)c1 [Trametinib] (partner 0.02 µM)
In short: as §1

[1] = compound: C1COCCN1C2=NC(=NC3=C2OC4=C3C=CC=N4)C5=CC(=CC=C5)NC(=O)C6=CN=C(C=C6)N + CS(=O)(=O)N1CCN(Cc2cc3nc(-c4cccc5[nH]ncc45)nc(N4CCOCC4)c3s2)CC1 [Pictilisib] (partner 1 µM)
In short: as §1

Cell Line | relative viability (Entinostat + Palbociclib; first compound 0.02 µM) | relative viability (Entinostat + Palbociclib; first compound 0.06325 µM) | relative viability (Entinostat + Palbociclib; first compound 0.2 µM) | relative viability (Entinostat + Palbociclib; first compound 0.6325 µM) | relative viability (Entinostat + Palbociclib; first compound 2 µM) | relative viability (Entinostat + AZD7762; first compound 0.02 µM) | relative viability (Entinostat + AZD7762; first compound 0.06325 µM) | relative viability (Entinostat + AZD7762; first compound 0.2 µM) | relative viability (Entinostat + AZD7762; first compound 0.6325 µM) | relative viability (Entinostat + AZD7762; first compound 2 µM) | relative viability (Entinostat + Trametinib; first compound 0.02 µM) | relative viability (Entinostat + Trametinib; first compound 0.06325 µM) | relative viability (Entinostat + Trametinib; first compound 0.2 µM) | relative viability (Entinostat + Trametinib; first compound 0.6325 µM) | relative viability (Entinostat + Trametinib; first compound 2 µM) | relative viability ([1]; first compound 0.02 µM) | relative viability ([1]; first compound 0.06325 µM) | relative viability ([1]; first compound 0.2 µM) | relative viability ([1]; first compound 0.6325 µM) | relative viability ([1]; first compound 2 µM)
NCI-H1648 | 0.297 | 0.25 | 0.259 | 0.247 | 0.258 | 0.789 | 0.715 | 0.725 | 0.566 | 0.485 | 0.507 | 0.682 | 0.436 | 0.653 | 0.472 | – | – | – | – | –
NCI-H1650 | 0.352 | 0.299 | 0.334 | 0.283 | 0.162 | – | – | – | – | – | 0.594 | 0.585 | 0.507 | 0.372 | 0.376 | 0.505 | 0.588 | 0.526 | 0.592 | 0.483
NCI-H1703 | – | – | – | – | – | 0.109 | 0.153 | 0.129 | 0.116 | 0.106 | – | – | – | – | – | 0.23 | 0.255 | 0.239 | 0.251 | 0.232
NCI-H2009 | 0.189 | 0.301 | 0.187 | 0.253 | 0.214 | – | – | – | – | – | 0.312 | 0.354 | 0.325 | 0.294 | 0.238 | 0.8 | 0.819 | 0.804 | 0.804 | 0.603
NCI-H2023 | 0.319 | 0.312 | 0.258 | 0.151 | 0.0658 | – | – | – | – | – | 0.467 | 0.473 | 0.226 | 0.127 | 0.0998 | 0.273 | 0.211 | 0.216 | 0.23 | 0.193
NCI-H2228 | 0.617 | 0.747 | 0.691 | 0.35 | 0.244 | – | – | – | – | – | 0.466 | 0.587 | 0.524 | 0.224 | 0.183 | 0.486 | 0.346 | 0.38 | 0.234 | 0.256
NCI-H2342 | 0.528 | 0.523 | 0.53 | 0.49 | 0.485 | 0.514 | 0.569 | 0.507 | 0.428 | 0.398 | 0.855 | 0.659 | 0.713 | 0.605 | 0.673 | – | – | – | – | –
SK-LU-1 | 0.361 | 0.395 | 0.361 | 0.311 | 0.316 | – | – | – | – | – | 0.445 | 0.617 | 0.463 | 0.361 | 0.402 | 0.553 | 0.671 | 0.634 | 0.536 | 0.467
SK-MES-1 | 0.31 | 0.395 | 0.394 | 0.43 | 0.422 | – | – | – | – | – | 0.553 | 0.693 | 0.865 | 0.83 | 0.512 | 0.31 | 0.407 | 0.369 | 0.353 | 0.317
SW 900 | 0.547 | 0.582 | 0.576 | 0.509 | 0.344 | 0.723 | 0.699 | 0.726 | 0.488 | 0.268 | 0.793 | 0.752 | 0.614 | 0.766 | 0.347 | – | – | – | – | –
SW 1573 | 0.322 | 0.486 | 0.434 | 0.428 | 0.311 | – | – | – | – | – | 0.652 | 0.722 | 0.733 | 0.554 | 0.431 | 0.555 | 0.54 | 0.621 | 0.534 | 0.344
